The values that follow come from US7829277B2, “Methods for identifying compounds that suppress chemically-induced carcinogenesis” (The Regents of the University of California, priority 2004, dated 2010).

Assay [1] has as its system PC3 prostate cancer cells. As to conditions: PC3 prostate cancer cells treated with genistein; cited from earlier work.
Assay [2] has as its system malignant prostate epithelial cells (RWPE-2). As to the kind of experiment: Microarray gene expression profile (Affymetrix Human Genome U133A) after lunasin treatment. Format: cell-based. The procedure: (§1) Rostate epithelial cells, RWPE-1 (normal) and RWPE-2 (malignant) were cultivated in the Keratinocyte-Serum free medium with 5 ng/ml rEGF and 0.05 mg/ml bovine pituitary extract. Cells were grown to 70% confluence, after which, cells were harvested and transferred to a 150 mm^2 plate at a cell density of 1×10^7 cells/ml. Lunasin peptide was added to a final concentration of 2 μM. The cells were incubated for 24 hours after lunasin treatment. […] RWPE-1 and RWPE-2 cells that were not treated with lunasin served as negative controls.
(§2) Microarrray analysis. Total RNA from each treatment was isolated by Trizol (Invitrogen, Carlsbad, Calif.). The cDNA used in microarray analysis was synthesized from 10 μg of total RNA using the SuperScript Choice system (Invitrogen). The cDNA was then transcribed in vitro in the presence of biotin-labeled nucleotide triphophates using T7 RNA polymerase after phenol-chloroform extraction and ethanol precipitation. cRNA was purified using the RNeasy mini kit (Qiagen) and fragmented at 94° C. for 30 min in the buffer containing 0.2 M Tris-acetate (pH 8.1) 0.5 M potassium acetate, and 0.15 M magnesium acetate. Fragmented cRNA was hybridized overnight at 45° C. to the human genome U133A Genechips (Affymetrix) representing approximately 22,215 transcripts. Hybridization was then detected using a confocal laser scanner (Affymetrix). The gene expression levels of samples were normalized and analyzed using RMA analysis (Irizarry et al., 2003).

Assay [3] has as its system normal prostate epithelial cells (RWPE-1). The description is as above. The class given is cell-based. The procedure: as §1, §2
Assay [4] concerns THBS1, PRKAR1A, TOB1, HIF1A mRNA in RWPE-1 and RWPE-2 cells. As to the kind of experiment: Real-time RT-PCR verification of selected genes. The class given is cell-based, human. Particulars: RWPE-1 and RWPE-2 treated with 2 microMoles lunasin; normalized to β-actin. The procedure: HIFIA-hypoxia-inducible factor 1, alpha subunit; PRKARIA-protein kinase, cAMP-dependent, regulatory, type I, alpha; TOB 1-transducer of ERBB2, 1; THSB 1-thrombospondin 1
Quantitative PCR. To confirm microarray data, the total RNA prepared for microarray analysis was used for RT-PCR analysis of selected genes. The cDNA used for quantitative PCR was synthesized from 3 μg of total RNA using the SuperScript First-Strand Synthesis for RT-PCR kit (Invitrogen), following manufacturer's recommendations. The cDNA was diluted 4-fold and 2 μl of cDNA was added to the quantitative PCR reaction using FAM-labeled TaqMan probes purchased from Applied Biosystems. The quantitative PCR reactions were performed in triplicate using a PRISM® ABI 7900HT Sequence Detection System (Applied Biosystems) and the expression of the β-actin gene (BACT) was used for normalization. Changes in expression were calculated using relative quantification as follows: ΔΔCt=ΔCtq−ΔCtcb; where Ct=the cycle number at which amplification rises above the background threshold, ΔCt=the change in Ct between two test samples, q=the target gene, and cb=the calibrator gene. Gene expression is then calculated as 2^−ΔΔ^Ct (Applied Biosystems).
Background: In qPCR the cycle at which signal appears reflects the starting amount.

The test system of assay [5] is C3H 10T1/2 mouse embryo fibroblast cells. Particulars: lunasin added exogenously at nanomolar concentrations; cited from earlier work.
The subject of assay [6] is female SENCAR mice. As to conditions: topical application; cited from earlier work.
In assay [7] the test system is E1A-transfected C3H10T1/2 cells. Particulars: cited from earlier work.
For assay [8], the system named is E1A-transfected mouse fibroblast NIH 3T3 cells. Particulars: E1A-transfected NIH 3T3 cells; cited from earlier work.
Assay [9] deals with p21/WAF1/Cip1 protein in cells transfected by the E1A oncogene. Particulars: not in untransfected control cells; cited from earlier work.
The target in assay [10] is deacetylated histone H4 (Homo sapiens, UniProt P62805). Particulars: chemically synthesized lunasin; cited from earlier work.
For assay [11], the system named is nucleus. As to conditions: after 18 hours of incubation; cited from earlier work.
Assay [12] has as its system normal prostate epithelial cells. As to conditions: cited from earlier work.
Assay [13] has as its system prostate cancer cell lines. Particulars: cited from earlier work.
Where [14] appears, read: RWPE-1, 24 hour exposure to 2 micromolar lunasin.

For `O=c1c(-c2ccc(O)cc2)coc2cc(O)cc(O)c12` [genistein], the “gene expression regulation (microarray)” value in assay [1] was “regulates the expression of genes that are involved in control of cell growth, cell cycle, apoptosis, cell signaling, angiogenesis, tumor cell invasion and metastasis”.
In the case of lunasin, the genes down-regulated entry in assay [2] (RWPE-2, 24 h lunasin) is listed as “No genes were down-regulated”. For the same molecule, the “number of genes up-regulated (greater than twofold)” value in assay [2] (RWPE-2 malignant cells, 24 h exposure to lunasin peptide) came to 2 genes. Also, in assay [3] (RWPE-1, 24 h lunasin), the genes down-regulated entry was “No genes were down-regulated”. Also, in assay [3] (setting [14]), the “Fold-change BNIP3, NIP3 (BCL2/adenovirus E1B 19 kDa interacting prot. 3)” value is on record as 2.05; the “Fold-change BUB1B, BUBR1” value was determined as 2.23; the “Fold-change ERBB2IP, ERBIN (erbb2 interacting protein)” value is reported as 2.23; the “Fold-change MAD2L1 (MAD2 mitotic arrest deficient-like 1)” value stood at 2.12. In assay [3] (setting [14]), the “Fold-change PORIMIN (pro-oncosis receptor inducing membrane injury gene)” value amounted to 2.26; the “Fold-change PRKAR1A, PKA (protein kinase, cAMP-dependent, regulatory, type I, alpha)” value was 2.45; the “Fold-change PRKCL2, PRK2 (protein kinase C-like 2)” value was 2.33; the “Fold-change PSMC6 (proteasome 26S subunit, ATPase, 6)” value is recorded as 2.58. Further, in [3] (setting [14]), the “Fold-change RANBP2 (RAN binding protein 2)” value amounted to 2.36; the “Fold-change SMURF2 (E3 ubiquitin ligase SMURF2)” value is 2.29; the “Fold-change SPTLC1 (serine palmitoyltransferase, long chain base subunit 1)” value was 2.12; the “Fold-change THBS1, TSP1 (thrombospondin 1)” value stood at 2.05. In assay [3] (setting [14]), the “Fold-change TOB1 (transducer of ERBB2, 1)” value is 2.32; the “Fold-change TTK (TTK protein kinase)” value was 2.08; the “Fold-change UBE1C (ubiquitin-activating enzyme E1C)” value was 2.15; the “Fold-change USP1 (ubiquitin specific protease 1)” value stood at 2.23. For the same molecule, the “total number of genes with a greater than twofold change in expression” value in [3] (RWPE-1 and RWPE-2 together, of up to 22,215 genes screened, 24 h lunasin) was found to be 123 genes. Moreover, the “number of genes up-regulated (greater than twofold)” value in [3] (RWPE-1 normal cells, 24 h exposure to lunasin peptide) is 121 genes. In [3] (microarray, lunasin treatment), the “BTB (POZ) containing domain 1 (ABTB1 or BPOZ) gene regulation (microarray)” value was “up-regulated”, the “SP3 gene regulation (microarray)” value is on record as “up-regulated”, the “connexin 43 gap junction protein expression (microarray)” value is “up-regulates” and the “cyclin D1 regulation (microarray)” value is “do not show down regulation”. Also, in [3] (microarray, lunasin treatment), the “hypoxia-inducible factor-1α (HIF1-A) gene regulation (microarray)” value is “up-regulated” and the “p21/WAF1/Cip1 transcript regulation (microarray)” value is recorded as “did not show up-regulation”. The “real-time RT-PCR mRNA level changes of THBS1, PRKAR1A, TOB1, HIF1A” value in [4] is given as “consistent with the microarray data”. Moreover, the “suppression of chemical carcinogen-induced (DMBA, MCA) foci formation” value in [5] is “Significant suppression”. Further, the skin tumorigenesis result in assay [6] was “inhibited skin tumorigenesis”. The apoptosis induction result in [7] is on record as “induce apoptosis”. Further, in assay [8], the foci formation result was “suppress foci formation”. For the same molecule, the p21/WAF1/Cip1 protein levels result in assay [9] is on record as “increased by five fold”. Moreover, in assay [10], the “binding to histone in vitro” value is “preferentially binds deacetylated histone H4”. The subcellular localization entry in assay [11] was “localize in the nucleus”.

B1: BBI: soybean derived serine protease inhibitor with anti-carcinogenic activity (protein, UniProt P01055 40-110, looked up)
Bowman-Birk type proteinase …: DDESSKPCCDQCACTKSNPPQCRCSDMRLNSCHSACKSCICALSYPAQCFCVDITDFCYEPCKPSEDDKEN
As for B1, the “effect on normal prostate epithelial cells” value in assay [12] is listed as “no effect”. Also, the “growth, invasion and clonogenic survival of prostate cancer cell lines” value in [13] was “inhibited the growth, invasion and clonogenic survival”.
